Assays:
KDR Resisant An. Gambiae = assay: Bottle toxicity assay (Example 8), knockdown resistant mosquitoes; type: in vivo, Anopheles gambiae
Protocol: Several compounds were tested to determine their toxic effect on knockdown resistant Anopheles gambiae mosquitoes and susceptible mosquitoes. Acetone and different amounts of pesticides were added to 250 ml bottles. In one bottle, only acetone was added as a control. The bottles were rotated in all directions while uncapped until all acetone was evaporated and the insecticide was coated onto the inside surfaces of the bottle. A number of knockdown resistant Anopheles gambiae mosquitoes were added to the bottle. The number of dead mosquitoes was recorded at 1 hour and 24 hours.

[1] = tested on: Ae. aegypti Isla mujeres strain (metabolically pyrethroid resistant); assay: Toxicity assay on treated netting (Example 7), Isla mujeres strain; type: in vivo
Protocol: (§1) Several compounds were tested to determine their toxic effect on Ae. aegypti mosquitoes. Three mosquito strains were tested—Houston which is pyrethroid susceptible, That which is pyrethroid tolerant and Isla Mujer which is metabolically pyrethroid resistant.
(§2) The toxicity assay involved a single chamber to which treated netting was added. Twenty (20) mosquitoes were transferred to the chamber. After 1 hour, the number of knocked down mosquitoes was recorded and all mosquitoes were transferred to holding cartoons. The mosquitoes were given a 10% sucrose-soaked cotton ball and returned to the insectary. Mortaility was measured after 24 hours. A control assay using acetone-treated netting was used. Six replicates were performed at each treatment concentration.

[2] = tested on: Ae. aegypti Thai strain (pyrethroid tolerant); assay: Toxicity assay on treated netting (Example 7), Thai strain; type: in vivo
Protocol: as §1, §2

[3] = tested on: female Aedes aegypti (Thailand strain) mosquitoes; assay: Contact irritancy and spatial repellency screening (Example 4); type: in vivo; settings: Dosage 25 nmol/cm^2; mapped with 3000 other compounds
Protocol: (§3) Four compounds of formula (I) were tested for contact irritancy (i.e., movement away from the source after physical contact) at low doses on female Aedes aegypti (Thailand strain) mosquitoes. The contact irritant response was determined by use of the contact irritant assay disclosed by Grieco et al. in “A New Classification System for the Actions of IRS Chemicals Traditionally Used for Malaria Control,” Plos One, Issue 8 (2007) (available at www.plosone.org). The assay used was a cylindrical assembly that included a metal treatment end to which 10 mosquitoes were introduced and a clear receiving chamber. The treatment end included a netting strip (nylon organdy) that was treated with the insecticide of interest at the relevant dose. A butterfly valve separated the treatment end from the remainder of the assembly.
(§4) The four compounds of formula I described in Example 2 were tested for spatial repellency (directed movement away from the chemical source without the insect making physical contact with the treated surface) at low doses on female Aedes aegypti (Thailand strain) mosquitoes. The spatial repellency response was determined by use of the spatial repellency assay disclosed by Grieco et al. in “A New Classification System for the Actions of IRS Chemicals Traditionally Used for Malaria Control” in Plos One, Issue 8 (2007) (available at www.plosone.org) which is incorporated herein by reference for all relevant and consistent purposes. The assay used was a cylindrical assembly that included a treatment chamber at one end and a control chamber at the other end. The treatment chamber included a netting strip (nylon organdy) that was treated with the insecticide of interest at the relevant dose. The treatment chamber and control chamber were connected by a clear cylinder and were separated from the clear cylinder by butterfly valves. Twenty (20) mosquitoes were introduced into the clear central chamber and the butterfly valves were opened after 30 seconds. After 10 minutes, the valves were closed and the number of mosquitoes in each chamber was counted.
Dosage was 25 nmol/cm^2. Several known compounds were also mapped for comparison—alphacypermethrin, cypermethrin, propoxur, bendiocarb, permethrin, SS220, DDT, deet and chlorpyrifos.

[4] = tested on: Ae. Aegypti strains Houston, That and Isla Mujer; assay: Spatial repellency on metabolically resistant mosquitoes (Example 6); type: in vivo
Protocol: as §4
(§5) The spatial repellency protocol of Example 3 was used to determine spatial repellency against mosquitoes (Ae. Aegypti) that had acquired metabolic resistance against pyrethroids. DDT and transfluthrin were also tested. Three mosquito strains were tested—Houston which is pyrethroid susceptible, That which is pyrethroid tolerant and Isla Mujer which is metabolically pyrethroid resistant.

[5] = tested on: Ae. aegypti Houston strain (pyrethroid susceptible); assay: Toxicity assay on treated netting (Example 7), Houston strain; type: in vivo
Protocol: as §1, §2

[6] = tested on: Ae. Aegypti, Isla Mujer strain (metabolically pyrethroid resistant); assay: Contact irritancy on metabolically resistant mosquitoes (Example 5); type: in vivo
Protocol: as §3
Each composition was applied to the netting strip at a varied dose via a 1.5 ml acetone solution. Four (4) treatment concentrations were used—0.0025 nmol/cm^2, 0.025 nmol/cm^2, 0.25 nmol/cm^2 and 2.5 nmol/cm^2. Netting was allowed to dry for 15 minutes prior to placement in the cylinder. Control assays were performed with netting treated with acetone only.
For each run, 10 mosquitoes were transferred into the treatment end of the assembly and, after 30 seconds, the butterfly valve was opened. The valve was closed after 10 minutes and the number of mosquitoes in the clear end (i.e., the number of escaped mosquitoes) was tested.
as §5, with “contact irritancy” for “spatial repellency”, “2” for “3”, “Alphacypermethrin” for “DDT”

[7] = Dose 0.025 nm/cm^2, Time 1 hour
[8] = Dose 0.025 nm/cm^2, Time 24 hours
[9] = Dose 0.0725 nm/cm^2, Time 1 hour
[10] = Dose 0.0725 nm/cm^2, Time 24 hours
[11] = Dose 0.125 nm/cm^2, Time 1 hour
[12] = Dose 0.125 nm/cm^2, Time 24 hours
[13] = Dose 0.25 nm/cm^2, Time 24 hours
[14] = Dose 2.5 nm/cm^2, Time 24 hours

SMILES: CC1(C)C(C=C(Cl)Cl)C1C(=O)OCc1ccc(F)c(C(F)(F)F)c1F (centres unmarked) [Compound 1406]
- KDR Resisant An. Gambiae (% dead (SE)) (KDR Resisant An. Gambiae; Dose 0.025 μg/bottle, Strain Tested F122, Time 1 hour): 100%
- KDR Resisant An. Gambiae (% dead (SE)) (KDR Resisant An. Gambiae; Dose 0.025 μg/bottle, Strain Tested F122, Time 24 hours): 100%
- KDR Resisant An. Gambiae (% dead (SE)) (KDR Resisant An. Gambiae; Dose 0.025 μg/bottle, Strain Tested F123, Time 1 hour): 100%
- KDR Resisant An. Gambiae (% dead (SE)) (KDR Resisant An. Gambiae; Dose 0.025 μg/bottle, Strain Tested F123, Time 24 hours): 100%
- KDR Resisant An. Gambiae (% dead (SE)) (KDR Resisant An. Gambiae; Dose 0.25 μg/bottle, Strain Tested F122, Time 1 hour): 100%
- KDR Resisant An. Gambiae (% dead (SE)) (KDR Resisant An. Gambiae; Dose 0.25 μg/bottle, Strain Tested F122, Time 24 hours): 100%
- KDR Resisant An. Gambiae (% dead (SE)) (KDR Resisant An. Gambiae; Dose 0.25 μg/bottle, Strain Tested F123, Time 1 hour): 100%
- KDR Resisant An. Gambiae (% dead (SE)) (KDR Resisant An. Gambiae; Dose 0.25 μg/bottle, Strain Tested F123, Time 24 hours): 100%
- KDR Resisant An. Gambiae (% dead (SE)) (KDR Resisant An. Gambiae; Dose 2.5 μg/bottle, Strain Tested F122, Time 1 hour): 100%
- KDR Resisant An. Gambiae (% dead (SE)) (KDR Resisant An. Gambiae; Dose 2.5 μg/bottle, Strain Tested F122, Time 24 hours): 100%
- KDR Resisant An. Gambiae (% dead (SE)) (KDR Resisant An. Gambiae; Dose 2.5 μg/bottle, Strain Tested F123, Time 1 hour): 100%
- KDR Resisant An. Gambiae (% dead (SE)) (KDR Resisant An. Gambiae; Dose 2.5 μg/bottle, Strain Tested F123, Time 24 hours): 100%
- effectiveness against knockdown resistant strains (KDR Resisant An. Gambiae; summary of Table 3): effective against knockdown resistant strains
- Isla mujeres (% dead (SE)) ([1]; Dose 0.00725 nm/cm^2, Time 1 hour): 0%
- Isla mujeres (% dead (SE)) ([1]; Dose 0.00725 nm/cm^2, Time 24 hours): 7.77%
- Isla mujeres (% dead (SE)) [1, 7]: 100%
- Isla mujeres (% dead (SE)) [1, 8]: 42.77%
- Isla mujeres (% dead (SE)) [1, 9]: 96.29%
- Isla mujeres (% dead (SE)) [1, 10]: 25.37%
- Isla mujeres (% dead (SE)) [1, 11]: 100%
- Isla mujeres (% dead (SE)) [1, 12]: 100%
- Isla mujeres (% dead (SE)) ([1]; Dose 0.25 nm/cm^2, Time 1 hour): 100%
- Isla mujeres (% dead (SE)) [1, 13]: 100%
- Isla mujeres (% dead (SE)) ([1]; Dose 2.5 nm/cm^2, Time 1 hour): 100%
- Isla mujeres (% dead (SE)) [1, 14]: 100%
- toxicity to resistant populations compared with standard compounds ([1]; summary of Table 2): more toxic to resistant populations than permethrin, matfluthrin and transfluthrin
- Thai (% dead (SE)) [2, 7]: 100%
- Thai (% dead (SE)) [2, 8]: 98.3%
- Thai (% dead (SE)) [2, 9]: 100%
- Thai (% dead (SE)) [2, 10]: 100%
- Thai (% dead (SE)) ([2]; Dose 0.25 nm/cm^2, Time 1 hour): 96.6%
- Thai (% dead (SE)) [2, 13]: 100%
- Thai (% dead (SE)) ([2]; Dose 2.5 nm/cm^2, Time 1 hour): 100%
- Thai (% dead (SE)) [2, 14]: 100%
- contact irritancy and spatial repellency relative to screened compounds (FIG. 3) [3]: superior contact irritancy and spatial repellency relative to most screened compounds
- spatial repellency, all strains (FIG. 5) [4]: spatial repellants for all strains
- Houston (% dead (SE)) [5, 7]: 100%
- Houston (% dead (SE)) [5, 8]: 100%
- Houston (% dead (SE)) [5, 9]: 100%
- Houston (% dead (SE)) [5, 10]: 100%
- Houston (% dead (SE)) [5, 11]: 100%
- Houston (% dead (SE)) [5, 12]: 100%
- Houston (% dead (SE)) ([5]; Dose 0.25 nm/cm^2, Time 1 hour): 100%
- Houston (% dead (SE)) [5, 13]: 100%
- Houston (% dead (SE)) ([5]; Dose 2.5 nm/cm^2, Time 1 hour): 100%
- Houston (% dead (SE)) [5, 14]: 100%
- contact irritancy, resistant strain (FIG. 4) [6]: effective in resistant strains

From patent publication US20150038707A1, “PROCESS FOR MAKING CGRP RECEPTOR ANTAGONISTS” (Merck Sharp & Dohme Corp., priority 2012, published 2015)
